# Measured values published in patent US20040234981A1, “Method of determining dna base sequence” (priority 2001, published 2004).
# Where “and” joins values, the source holds several entries; their conditions need not be identical. Identical values can stand only once.
# B1: T7 RNA polymerase F644Y/Δ1: T7 RNA polymerase F644Y deficient in amino acids 172 and 173; plasmid pT7RF644Y/Δ1, FERM BP-7619 (protein, UniProt P00573 1-883, looked up, variant F644Y del172-173)
# T7 RNA polymerase: MNTINIAKNDFSDIELAAIPFNTLADHYGERLAREQLALEHESYEMGEARFRKMFERQLKAGEVADNAAAKPLITTLLPKMIARINDWFEEVKAKRGKRPTAFQFLQEIKPEAVAYITIKTTLACLTSADNTTVQAVASAIGRAIEDEARFGRIRDLEAKHFKKNVEEQLNVGHVYKKAFMQVVEADMLSKGLLGGEAWSSWHKEDSIHVGVRCIEMLIESTGMVSLHRQNAGVVGQDSETIELAPEYAEAIATRAGALAGISPMFQPCVVPPKPWTGITGGGYWANGRRPLALVRTHSKKALMRYEDVYMPEVYKAINIAQNTAWKINKKVLAVANVITKWKHCPVEDIPAIEREELPMKPEDIDMNPEALTAWKRAAAAVYRKDKARKSRRISLEFMLEQANKFANHKAIWFPYNMDWRGRVYAVSMFNPQGNDMTKGLLTLAKGKPIGKEGYYWLKIHGANCAGVDKVPFPERIKFIEENHENIMACAKSPLENTWWAEQDSPFCFLAFCFEYAGVQHHGLSYNCSLPLAFDGSCSGIQHFSAMLRDEVGGRAVNLLPSETVQDIYGIVAKKVNEILQADAINGTDNEVVTVTDENTGEISEKVKLGTKALAGQWLAYGVTRSVTKRSVMTLAYGSKEYGFRQQVLEDTIQPAIDSGKGLMFTQPNQAAGYMAKLIWESVSVTVVAAVEAMNWLKSAAKLLAAEVKDKKTGEILRKRCAVHWVTPDGFPVWQEYKKPIQTRLNLMFLGQFRLQPTINTNKDSEIDAHKQESGIAPNFVHSQDGSHLRKTVVWAHEKYGIESFALIHDSFGTIPADAANLFKAVRETMVDTYESCDVLADFYDQFADQLHESQLDKMPALPAKGNLNLRDILESDFAFA
# What was measured:
# [1] = system: fluorescent-labeled 3′-deoxynucleotide; experiment: Ability to incorporate fluorescent-labeled 3′-deoxynucleotide, fluorescent signal intensity on ABI 377 XL Sequencer; type: biochemical; conditions: for (1) Average signal intensity U: Bodipy(564/570)-3′dUTP; for (1) Average signal intensity U / (1) Average signal intensity C / (1) Average signal intensity G / (1) Average signal intensity A: 100 units of enzyme (50 units for F644Y/Δ1); for (1) Average signal intensity C: Bodipy(581/591)-3′dCTP; for (1) Average signal intensity G: Bodipy(FL)-3′dGTP; for (1) Average signal intensity A: Bodipy(R6G)-3′dATP; for (2) Signal intensity per unit of enzyme G: conversion of (1) per unit of enzyme; for Signal intensity per unit of enzyme A, value in parentheses relative to wild enzyme / Signal intensity per unit of enzyme C, value in parentheses relative to wild enzyme / Signal intensity per unit of enzyme G, value in parentheses relative to wild enzyme / Signal intensity per unit of enzyme U, value in parentheses relative to wild enzyme: relative to a value of 1 for the signal intensity of wild enzyme
# Method: A comparison was conducted of the ability to incorporate florescent-labeled 3′-deoxynucleotide of Δ-type enzyme of purified T7 RNA polymerase.
# This method was conducted in accordance with the method of Sasaki et al. (Sasaki, N., et al. Gene, 222(1): 17-24 (1998)). In greater detail, pBluescriptII DNA was employed as template. A solution obtained by mixing Bodipy(R6G)-3′dATP, Bodipy(FL)-3′dGTP, Bodipy(581/591)-3′dCTP, Bodipy(564/570)-3′dUTP, ATP, GTP, CTP, and UTP in prescribed proportions was employed to conduct reactions differing only with regard to the T7 RNA polymerase employed. The enzymes employed were 100 units of T7 RNA polymerase (wild type) and T7 RNA polymerase F644Y; and 50 units of T7 RNA polymerase F644Y/Δ1. The reaction product was subjected to electrophoresis with an ABI 377 XL Sequencer. The average value of the fluorescent signal intensity was compared for each nucleotide.
# Column (2) is a conversion of the value of (1) per unit of enzyme. Numbers shown in parentheses denote values relative to a value of “1” for the signal intensity of wild enzyme. […] Since the ABI 377 XL Sequencer is not a device for quantitative analysis, and operations is conducted on an extremely small amount of samples, large errors are to be expected.
# [2] = system: 3′-dATP; experiment: Test (1): 3′-dATP added during in vitro transcription, amount of RNA synthesized (SYBER Green II gel image); type: biochemical; conditions: 3′-dATP concentration 0.024 mM, wild form of T7 RNA polymerase taken as 1, inverse of RNA synthesis level
# Method: (§1) The ability to incorporate 3′-dATP of the Δ type enzyme of purified T7 RNA polymerase was compared to that of the wild type and F644Y mutation.
# In this method, 3′-dATP was added during an in vitro transcription reaction and the synthesis level was determined by comparison with synthesis impairment. This will be described in greater detail. The template employed was pBluescriptII (Stratagene) pretreated with the restriction enzyme ScaI (made by Nippon Gene). The reaction conditions were: 40 mM Tris-HCl, pH 8.0, 25 mM NaCl, 8 mM MgCl2, 2 mM spermidine-(HCl)3, and 5 mM DTT. The concentration of nucleotides ATP, CTP, GTP, and UTP was 0.5 mM. Of these, ATP was replaced with 3′-dATP (Sigma) in ranges of 0.006 mM, 0.008 mM, 0.012 mM, and 0.024 mM. The above purified enzymes were added to 20 μL of this solution and the reaction was conducted for 30 to 60 min at 37° C. At the conclusion of the reaction, 4 μL of 5× gel loading buffer was added (15% Ficoll, 0.1% BPB, 0.1% XC, 0.5% SDS, and 0.1 M EDTA). The entire solution was then subjected to electrophoresis in a 1% modified agarose gel containing formaldehyde. At the conclusion of electrophoresis, 10,000-fold dilution was conducted with SYBER Green II (made by Molecular Probe Co.) and dying was conducted for 20 to 40 min according to a protocol of addition to the product. A Fluoro S Multiimager (BiORad Co.) was then employed to irradiate ultraviolet radiation and pick up the fluorescent image. Multianalyst, an attached image analyzing software package, was used to determine the amount of RNA that had been synthesized from the image picked up. The various values of the results were compared. An increase in ability to incorporate 3′-dATP should result in a drop in the synthesis level. Accordingly, a comparison was made with a control, and the inverse thereof was employed as indicator of how readily 3′-dATP was incorporated.
# [3] = system: 3′-deoxy nucleotide; conditions: Izawa, M., et al. J. Biol. Chem., 273 (23): 14242 (1998); cited from earlier work
# [4] = system: 3′-dATP; experiment: Test (2): 3′-dATP added during in vitro transcription with Biotin-labeled CTP, chemoluminescent signal detection; type: biochemical; conditions: 3′-dATP concentration 0.00125 mM, wild form taken as 1, average of three runs
# Method: as §1
# In this method, 3′-dATP was added during an in vitro transcription reaction and the synthesis level was determined by comparison with synthesis impairment. This will be described in greater detail. The template employed was pBluescriptII (Stratagene) pretreated with the restriction enzyme ScaI (made by Nippon Gene). The reaction conditions were: 40 mM Tris-HCl, pH 8.0, 25 mM NaCl, 8 mM MgCl2, 2 mM spermidine-(HCl)3, and 5 mM DTT. The concentration of ribonucleotides rATP, rCTP, rGTP, and rUTP was 0.5 mM. A 0.1 mM quantity of Biotin-labeled CTP was added and 3′-dATP was added in ranges of 0.00125 mM, 0.0025 mM, and 0.005 mM. A 25 U quantity of enzymes purified as set forth above were added to 10 μL of this solution and the reaction was conducted for 60 min at 37° C. At the conclusion of the reaction, 1 μL of 10× gel loading buffer (1 mM EDTA, 1% SDS, 50% glycerol, and 0.05% BPB) was added. The entire solution was then subjected to electrophoresis in a 1% modified formamide gel. At the conclusion of electrophoresis, northern hybridization was conducted, the synthesized product was transcribed onto a nylon membrane, and signal detection was conducted based on a chemoluminescent substrate according to a protocol of anti-SA-AP antibody (made by Oriental Yeast Co., diluted 20,000-fold) and CDP-Star™ (made by Roche Co.). A Fluoro S Multiimager (BioRad Co.) and Multianalyst, an attached image analyzing software package, were then employed to determine the level of the signal detected.
molecule,measurement,setting,value
"T7 RNA polymerase F644Y: mutant T7 RNA polymerase, tyrosine substituted for phenylalanine at residue 644; plasmid pT7RF644Y",(1) Average signal intensity U,[1],134
same,(1) Average signal intensity C,[1],136
same,(1) Average signal intensity G,[1],199
same,(1) Average signal intensity A,[1],74
same,(2) Signal intensity per unit of enzyme G,[1],2.0
same,"Signal intensity per unit of enzyme A, value in parentheses relative to wild enzyme",[1],(1.1)
same,"Signal intensity per unit of enzyme C, value in parentheses relative to wild enzyme",[1],(0.9)
same,"Signal intensity per unit of enzyme G, value in parentheses relative to wild enzyme",[1],(0.9)
same,"Signal intensity per unit of enzyme U, value in parentheses relative to wild enzyme",[1],(1.1)
same,Relative ability to incorporate 3′-dATP,[2],1.45
same,Increase in ability to incorporate 3′-deoxy nucleotide relative to the corresponding wild form,[3],about fivefold
same,Relative ability to incorporate 3′-dATP,[4],1.20 ± 0.3
same,Relative ability to incorporate 3′-dATP,[4]; listed as F644Y,1.20±0.3 and 1.20
B1,(1) Average signal intensity U,[1],332
same,(1) Average signal intensity C,[1],317
same,(1) Average signal intensity G,[1],446
same,(1) Average signal intensity A,[1],156
same,(2) Signal intensity per unit of enzyme G,[1],8.92
same,"Signal intensity per unit of enzyme A, value in parentheses relative to wild enzyme",[1],(2.3)
same,"Signal intensity per unit of enzyme C, value in parentheses relative to wild enzyme",[1],(2.2)
same,"Signal intensity per unit of enzyme G, value in parentheses relative to wild enzyme",[1],(4.0)
same,"Signal intensity per unit of enzyme U, value in parentheses relative to wild enzyme",[1],(2.8)
same,Relative ability to incorporate 3′-dATP,[2],15.5
same,Relative ability to incorporate 3′-dATP,[4]; listed as F644Y/Δ1,2.30±0.3 and 2.30
same,Relative ability to incorporate 3′-dATP,[4]; listed as T7 RNA polymerase F644Y/Δ 1,2.30 ± 0.3
